Experimental data published in the CheMixHub drug solubility set.

Assay: xn = mol fraction of the nth substance listed, in the solute-free solvent

Clc1ncnc2[nH]ccc12 + C1CCOC1 + CC#N
solubility (g/100 g solution)
Conditions | 278.15 K | 283.15 K | 288.15 K | 293.15 K | 298.15 K | 303.15 K | 308.15 K | 313.15 K | 318.15 K | 323.15 K
x2 = 0.1144 | 1.32 | 1.6 | 1.93 | 2.31 | 2.76 | 3.28 | 3.83 | 4.5 | 5.24 | 6.02
x2 = 0.2441 | 2.03 | 2.39 | 2.84 | 3.33 | 3.92 | 4.49 | 5.24 | 5.97 | 6.81 | 7.73
x2 = 0.3923 | 3.17 | 3.65 | 4.24 | 4.84 | 5.58 | 6.34 | 7.13 | 8.04 | 9.06 | 10.1
x2 = 0.4748 | 3.9 | 4.49 | 5.13 | 5.83 | 6.63 | 7.45 | 8.34 | 9.34 | 10.4 | 11.5
x2 = 0.5636 | 5.02 | 5.61 | 6.32 | 7.09 | 8 | 8.89 | 9.89 | 10.9 | 12 | 13.2
x2 = 0.7635 | 7.14 | 8 | 8.83 | 9.79 | 10.7 | 11.8 | 12.8 | 14 | 15.2 | 16.4

Clc1ncnc2[nH]ccc12 + C1CCOC1 + CC(C)O
solubility (g/100 g solution)
Conditions | 278.15 K | 283.15 K | 288.15 K | 293.15 K | 298.15 K | 303.15 K | 308.15 K | 313.15 K | 318.15 K | 323.15 K
x2 = 0.1584 | 3.68 | 4.2 | 4.8 | 5.46 | 6.15 | 6.89 | 7.74 | 8.58 | 9.6 | 10.6
x2 = 0.32 | 5.12 | 5.79 | 6.49 | 7.25 | 8.17 | 9.04 | 9.96 | 10.9 | 12 | 13.2
x2 = 0.4848 | 6.63 | 7.38 | 8.22 | 9.03 | 9.99 | 10.9 | 12 | 13.1 | 14.2 | 15.3
x2 = 0.5685 | 7.34 | 8.12 | 8.96 | 9.81 | 10.8 | 11.9 | 12.8 | 14 | 15.1 | 16.3
x2 = 0.6531 | 7.99 | 8.83 | 9.69 | 10.6 | 11.6 | 12.6 | 13.7 | 14.7 | 15.8 | 17
x2 = 0.8247 | 8.95 | 9.82 | 10.7 | 11.6 | 12.6 | 13.5 | 14.6 | 15.7 | 16.7 | 17.9

Clc1ncnc2[nH]ccc12 + C1CCOC1 + CCOC(C)=O
solubility (g/100 g solution)
Conditions | 278.15 K | 283.15 K | 288.15 K | 293.15 K | 298.15 K | 303.15 K | 308.15 K | 313.15 K | 318.15 K | 323.15 K
x2 = 0.1937 | 2.62 | 2.95 | 3.32 | 3.75 | 4.21 | 4.72 | 5.25 | 5.79 | 6.4 | 7.07
x2 = 0.3753 | 3.46 | 3.9 | 4.38 | 4.87 | 5.45 | 6.03 | 6.66 | 7.34 | 8.06 | 8.83
x2 = 0.5458 | 4.65 | 5.2 | 5.79 | 6.4 | 7.13 | 7.83 | 8.57 | 9.41 | 10.2 | 11.2
x2 = 0.6272 | 5.34 | 5.93 | 6.58 | 7.23 | 8 | 8.79 | 9.64 | 10.5 | 11.4 | 12.4
x2 = 0.7061 | 5.97 | 6.66 | 7.32 | 8.1 | 8.9 | 9.77 | 10.6 | 11.5 | 12.6 | 13.5
x2 = 0.8573 | 7.35 | 8.08 | 8.82 | 9.69 | 10.6 | 11.6 | 12.5 | 13.5 | 14.6 | 15.7

Clc1ncnc2[nH]ccc12 + C1CCOC1 + CO
solubility (g/100 g solution)
Conditions | 278.15 K | 283.15 K | 288.15 K | 293.15 K | 298.15 K | 303.15 K | 308.15 K | 313.15 K | 318.15 K | 323.15 K
x2 = 0.09054 | 4.18 | 4.85 | 5.59 | 6.45 | 7.41 | 8.85 | 9.6 | 10.8 | 12.2 | 13.6
x2 = 0.1993 | 6.2 | 7.11 | 8.13 | 9.15 | 10.3 | 11.6 | 12.9 | 14.3 | 15.9 | 17.4
x2 = 0.3323 | 8.17 | 9.22 | 10.3 | 11.4 | 12.7 | 14.1 | 15.4 | 17 | 18.5 | 20.2
x2 = 0.4107 | 8.75 | 9.76 | 10.9 | 12 | 13.4 | 14.6 | 16.1 | 17.5 | 19.1 | 20.7
x2 = 0.4989 | 9.02 | 10 | 11.1 | 12.2 | 13.5 | 14.8 | 16.1 | 17.5 | 18.9 | 20.5
x2 = 0.7134 | 8.95 | 9.87 | 10.8 | 11.8 | 13 | 14 | 15.2 | 16.5 | 17.7 | 19.1

CN1CCN(C(=O)OC2c3nccnc3C(=O)N2c2ccc(Cl)cn2)CC1 (stereo not given) + C1CCOC1 + O
solubility (g/100 g solution)
Conditions | x2 = 0.3 | x2 = 0.4 | x2 = 0.5 | x2 = 0.6 | x2 = 0.7 | x2 = 0.8 | x2 = 0.9
288.15 K | 0.41 | 0.79 | 1.33 | 2.06 | 2.8 | 3.32 | 3.83
298.15 K | 0.626 | 1.14 | 1.83 | 2.66 | 3.57 | 4.41 | 4.87
308.15 K | 0.91 | 1.54 | 2.43 | 3.54 | 4.53 | 5.71 | 6.18
318.15 K | 1.13 | 2 | 3.21 | 4.68 | 6.19 | 7.53 | 8.07
328.15 K | 1.47 | 2.59 | 4.15 | 6.16 | 8.4 | 9.55 | 9.98
